In ChEMBL document CHEMBL1201862, “PubChem BioAssay data set” (2004):
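In this assay, cells in 96-well plates receive the compound at five concentrations for 48 hours. Endpoints are linearly interpolated between the surrounding concentrations. Abbreviation: GI50, concentration required for 50% inhibition of growth.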 Calls of active or inactive are those of the source. Rule as the data show it: active = GI50 up to about 1.1 µM and inactive = higher.

Assays:
Experiment in all cases: NCI-60 cell line screen, 48 h
UO-31 = tested on: UO-31
CCRF-CEM = tested on: CCRF-CEM
T47D = tested on: T47D
TK-10 = tested on: TK-10
HOP-62 = tested on: HOP-62
IGROV-1 = tested on: IGROV-1
MDA-MB-435 = tested on: MDA-MB-435
HCT-116 = tested on: HCT-116
SK-MEL-28 = tested on: SK-MEL-28
M14 = tested on: M14
U-251 = tested on: U-251
LOX IMVI = tested on: LOX IMVI
CAKI-1 = tested on: CAKI-1
HT-29 = tested on: HT-29
MDA-N = tested on: MDA-N
Malme-3M = tested on: Malme-3M
OVCAR-3 = tested on: OVCAR-3
A498 = tested on: A498
ACHN = tested on: ACHN
UACC-257 = tested on: UACC-257
EKVX = tested on: EKVX
UACC-62 = tested on: UACC-62
MDA-MB-231 = tested on: MDA-MB-231
NCI/ADR-RES = tested on: NCI/ADR-RES
K562 = tested on: K562
MCF7 = tested on: MCF7
SK-OV-3 = tested on: SK-OV-3
COLO 205 = tested on: COLO 205
PC-3 = tested on: PC-3
NCI-H460 = tested on: NCI-H460
SNB-19 = tested on: SNB-19
SF-268 = tested on: SF-268
SW-620 = tested on: SW-620
SF-295 = tested on: SF-295
OVCAR-5 = tested on: OVCAR-5
SK-MEL-5 = tested on: SK-MEL-5
NCI-H522 = tested on: NCI-H522
DU-145 = tested on: DU-145
HCT-15 = tested on: HCT-15
A549 = tested on: A549
MOLT-4 = tested on: MOLT-4
SK-MEL-2 = tested on: SK-MEL-2
SF-539 = tested on: SF-539
OVCAR-4 = tested on: OVCAR-4
KM12 = tested on: KM12
RPMI-8226 = tested on: RPMI-8226
HOP-92 = tested on: HOP-92
NCI-H23 = tested on: NCI-H23
SN12C = tested on: SN12C
RXF 393 = tested on: RXF 393
OVCAR-8 = tested on: OVCAR-8
786-0 = tested on: 786-0
SNB-75 = tested on: SNB-75
SR = tested on: SR
HL-60 = tested on: HL-60
HCC 2998 = tested on: HCC 2998

With COc1ccc(-c2oc3ccccc3c(=O)c2O)cc1OC [3-HYDROXY-3',4'-DIMETHOXYFLAVONE] the GI50 (UO-31) was > 100 µM (inactive), the GI50 (CCRF-CEM) was 3.81 µM (inactive) and the GI50 (T47D) was 99.5 µM (inactive). For the same compound, the GI50 (TK-10) was 12.3 µM (inactive), the GI50 (HOP-62) was 11.2 µM (inactive) and the GI50 (IGROV-1) was 14.3 µM (inactive). For the same compound, the GI50 (MDA-MB-435) was > 100 µM (inactive), the GI50 (HCT-116) was > 100 µM (inactive) and the GI50 (SK-MEL-28) was 25.3 µM (inactive). For the same compound, the GI50 (M14) was > 100 µM (inactive), the GI50 (U-251) was 4.92 µM (inactive) and the GI50 (LOX IMVI) was 9.95 µM (inactive). For the same compound, the GI50 (CAKI-1) was 55.2 µM (inactive), the GI50 (HT-29) was > 100 µM (inactive) and the GI50 (MDA-N) was > 100 µM (inactive). For the same compound, the GI50 (Malme-3M) was > 100 µM (inactive), the GI50 (OVCAR-3) was 47.5 µM (inactive) and the GI50 (A498) was 6.92 µM (inactive). The GI50 (ACHN) was 10.6 µM (inactive), the GI50 (UACC-257) was > 100 µM (inactive) and the GI50 (EKVX) was > 100 µM (inactive). The GI50 (UACC-62) was 5.22 µM (inactive), the GI50 (MDA-MB-231) was > 100 µM (inactive) and the GI50 (NCI/ADR-RES) was 3.77 µM (inactive). The GI50 (K562) was > 100 µM (inactive), the GI50 (MCF7) was > 100 µM (inactive) and the GI50 (SK-OV-3) was 4.81 µM (inactive). For the same compound, the GI50 (COLO 205) was > 100 µM (inactive), the GI50 (PC-3) was > 100 µM (inactive) and the GI50 (NCI-H460) was 4.69 µM (inactive). For the same compound, the GI50 (SNB-19) was 29 µM (inactive), the GI50 (SF-268) was 7.5 µM (inactive) and the GI50 (SW-620) was > 100 µM (inactive). The GI50 (SF-295) was 17.4 µM (inactive), the GI50 (OVCAR-5) was > 100 µM (inactive) and the GI50 (SK-MEL-5) was > 100 µM (inactive). The GI50 (NCI-H522) was 4.63 µM (inactive), the GI50 (DU-145) was 7.16 µM (inactive) and the GI50 (HCT-15) was over 100 µM. The GI50 (A549) was > 100 µM (inactive).

For Cc1cn(C2CC(N(O)C(N)=O)C(CO)O2)c(=O)[nH]c1=O (stereo unspecified), the GI50 (MOLT-4) was > 100 µM (inactive), the GI50 (UO-31) was > 100 µM (inactive) and the GI50 (T47D) was > 100 µM (inactive). The GI50 (TK-10) was > 100 µM (inactive), the GI50 (HOP-62) was > 100 µM (inactive) and the GI50 (MDA-MB-435) was > 100 µM (inactive). The GI50 (HCT-116) was > 100 µM (inactive), the GI50 (SK-MEL-28) was > 100 µM (inactive) and the GI50 (M14) was > 100 µM (inactive). For the same compound, the GI50 (U-251) was > 100 µM (inactive), the GI50 (SK-MEL-2) was > 100 µM (inactive) and the GI50 (SF-539) was > 100 µM (inactive). For the same compound, the GI50 (OVCAR-4) was > 100 µM (inactive), the GI50 (KM12) was > 100 µM (inactive) and the GI50 (CAKI-1) was > 100 µM (inactive). The GI50 (HT-29) was > 100 µM (inactive), the GI50 (RPMI-8226) was > 100 µM (inactive) and the GI50 (MDA-N) was > 100 µM (inactive). The GI50 (Malme-3M) was > 100 µM (inactive), the GI50 (OVCAR-3) was > 100 µM (inactive) and the GI50 (A498) was > 100 µM (inactive). For the same compound, the GI50 (ACHN) was > 100 µM (inactive), the GI50 (UACC-62) was > 100 µM (inactive) and the GI50 (HOP-92) was > 100 µM (inactive). For the same compound, the GI50 (MDA-MB-231) was > 100 µM (inactive), the GI50 (NCI/ADR-RES) was > 100 µM (inactive) and the GI50 (K562) was > 100 µM (inactive). The GI50 (MCF7) was > 100 µM (inactive), the GI50 (SK-OV-3) was > 100 µM (inactive) and the GI50 (COLO 205) was > 100 µM (inactive). For the same compound, the GI50 (PC-3) was > 100 µM (inactive), the GI50 (SNB-19) was > 100 µM (inactive) and the GI50 (SF-268) was > 100 µM (inactive). For the same compound, the GI50 (SW-620) was > 100 µM (inactive), the GI50 (SF-295) was > 100 µM (inactive) and the GI50 (OVCAR-5) was > 100 µM (inactive). The GI50 (NCI-H23) was > 100 µM (inactive), the GI50 (SN12C) was > 100 µM (inactive) and the GI50 (RXF 393) was > 100 µM (inactive). For the same compound, the GI50 (OVCAR-8) was > 100 µM (inactive), the GI50 (SK-MEL-5) was > 100 µM (inactive) and the GI50 (NCI-H522) was > 100 µM (inactive). The GI50 (DU-145) was > 100 µM (inactive), the GI50 (786-0) was > 100 µM (inactive) and the GI50 (HCT-15) was over 100 µM. For the same compound, the GI50 (A549) was > 100 µM (inactive).

In the case of COc1ccc2c3c([nH]c2c1)-c1nc2ccccc2c(=O)n1CC3, the GI50 (MOLT-4) is reported as > 25 µM (inactive), the GI50 (UO-31) is reported as > 25 µM (inactive) and the GI50 (T47D) is reported as > 25 µM (inactive). For the same compound, the GI50 (TK-10) was > 25 µM (inactive), the GI50 (HOP-62) was > 25 µM (inactive) and the GI50 (IGROV-1) was > 25 µM (inactive). For the same compound, the GI50 (MDA-MB-435) was > 25 µM (inactive), the GI50 (HCT-116) was > 25 µM (inactive) and the GI50 (SK-MEL-28) was > 25 µM (inactive). The GI50 (SNB-75) was 13.1 µM (inactive), the GI50 (SR) was > 25 µM (inactive) and the GI50 (M14) was > 25 µM (inactive). For the same compound, the GI50 (U-251) was > 25 µM (inactive), the GI50 (SF-539) was 14.9 µM (inactive) and the GI50 (KM12) was > 25 µM (inactive). The GI50 (RPMI-8226) was > 25 µM (inactive), the GI50 (MDA-N) was > 25 µM (inactive) and the GI50 (ACHN) was > 25 µM (inactive). The GI50 (HL-60) was > 25 µM (inactive), the GI50 (UACC-257) was > 25 µM (inactive) and the GI50 (EKVX) was > 25 µM (inactive). The GI50 (MDA-MB-231) was > 25 µM (inactive), the GI50 (NCI/ADR-RES) was > 25 µM (inactive) and the GI50 (K562) was > 25 µM (inactive). For the same compound, the GI50 (MCF7) was > 25 µM (inactive), the GI50 (SK-OV-3) was > 25 µM (inactive) and the GI50 (COLO 205) was > 25 µM (inactive). For the same compound, the GI50 (PC-3) was > 25 µM (inactive), the GI50 (SNB-19) was > 25 µM (inactive) and the GI50 (SF-268) was 21.5 µM (inactive). For the same compound, the GI50 (SW-620) was > 25 µM (inactive), the GI50 (SF-295) was > 25 µM (inactive) and the GI50 (OVCAR-5) was > 25 µM (inactive). For the same compound, the GI50 (HCC 2998) was > 25 µM (inactive), the GI50 (SN12C) was > 25 µM (inactive) and the GI50 (OVCAR-8) was > 25 µM (inactive). For the same compound, the GI50 (SK-MEL-5) was > 25 µM (inactive), the GI50 (NCI-H522) was > 25 µM (inactive) and the GI50 (786-0) was 0.317 µM (active). For the same compound, the GI50 (HCT-15) was over 25 µM.
